Among the test systems are DU-145 prostate; CCRF-CEM leukemia; MDA-MB-231 breast; SW-620 colon; SN12C renal; SK-OV-3 ovarian; NCI-H522 lung; HCT-15 colon; RXF 393 renal; UO-31 renal.
Holding throughout (test): growth of human tumour cells (NCI), 48 h

SMILES strings stand for the structures.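 All cell lines were grown in 96-well plates and treated with compound for 48 hours. Here, GI50 denotes the concentration required for 50% inhibition of growth. TGI denotes the concentration required for complete inhibition of growth.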

Take `Cc1cc2c(C(C)C)c(O)c(O)c(C=O)c2c(O)c1-c1c(C)cc2c(C(C)C)c(O)c(O)c(C=O)c2c1O` (tested in a mixture with another compound): the GI50 in the assay with DU-145 prostate is 1.12 µM; in the assay with CCRF-CEM leukemia, 0.546 µM; with MDA-MB-231 breast it was 2.11 µM; with SW-620 colon, 0.806 µM; in the assay on SN12C renal it was 1.66 µM; in the assay on SK-OV-3 ovarian it was 1.78 µM. For the same molecule, the GI50 in the assay with NCI-H522 lung was 0.584 µM; with HCT-15 colon, 0.79 µM; in the assay on RXF 393 renal it was 1 µM; in the assay on UO-31 renal it was 1.64 µM. In addition, the TGI came out at 3.07 µM in the assay with DU-145 prostate; 13.7 µM in the assay with CCRF-CEM leukemia; 5.8 µM in the assay on MDA-MB-231 breast; 2.33 µM in the assay with SW-620 colon; 5.95 µM in the assay on SN12C renal; 9.33 µM with SK-OV-3 ovarian. Besides, the TGI in the assay on NCI-H522 lung stood at 2.44 µM; in the assay on HCT-15 colon it was 2.99 µM; in the assay with RXF 393 renal it was 2.52 µM; in the assay on UO-31 renal, 4.56 µM.
Take `ClC1=C(Cl)C(Cl)=C(Cl)C1=Cc1ccc(Cl)cc1`: the GI50 is 0.629 µM with DU-145 prostate; 0.33 µM in the assay on CCRF-CEM leukemia; 0.302 µM in the assay with MDA-MB-231 breast; 0.241 µM in the assay on SW-620 colon; 0.375 µM in the assay with SN12C renal; 1.64 µM in the assay on SK-OV-3 ovarian. Further, the GI50 in the assay with NCI-H522 lung was 0.23 µM; with HCT-15 colon, 0.536 µM; with RXF 393 renal it was 0.267 µM; in the assay on UO-31 renal it was 0.539 µM. Also, the TGI in the assay with DU-145 prostate turned out to be 2.07 µM; with CCRF-CEM leukemia, 2.47 µM; in the assay on MDA-MB-231 breast it was 1.08 µM; in the assay with SW-620 colon, 0.68 µM; with SN12C renal, 1.82 µM; with SK-OV-3 ovarian it was 3.55 µM. Besides, the TGI came out at 0.655 µM with NCI-H522 lung, 2.56 µM with HCT-15 colon, 0.842 µM with RXF 393 renal and 2.52 µM in the assay on UO-31 renal.

Values taken from PubChem BioAssay (NCI).
